Source: ChEMBL document CHEMBL1201862, “PubChem BioAssay data set” (2004)
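The compound was tested at five concentrations on cells cultured in 96-well plates, with a 48-hour exposure period. GI50: concentration for 50% inhibition of growth.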 Calls of active or inactive are those of the source. No stated cut-off is given here; in the data, active = GI50 up to about 1.1 µM and inactive = higher.

Legend:
Assay in all cases: NCI-60 cell line screen, 48 h
OVCAR-8 = tested on: OVCAR-8
K562 = tested on: K562
SN12C = tested on: SN12C
MDA-N = tested on: MDA-N
Hs-578T = tested on: Hs-578T
HCT-15 = tested on: HCT-15
OVCAR-4 = tested on: OVCAR-4
COLO 205 = tested on: COLO 205
NCI-H226 = tested on: NCI-H226
ACHN = tested on: ACHN
HL-60 = tested on: HL-60
HT-29 = tested on: HT-29
HOP-92 = tested on: HOP-92
NCI-H460 = tested on: NCI-H460
M14 = tested on: M14
LOX IMVI = tested on: LOX IMVI
UACC-257 = tested on: UACC-257
SF-268 = tested on: SF-268
786-0 = tested on: 786-0
SW-620 = tested on: SW-620

Row | Structure (SMILES) | GI50 (OVCAR-8) | GI50 (K562) | GI50 (SN12C) | GI50 (MDA-N) | GI50 (Hs-578T) | GI50 (HCT-15) | GI50 (OVCAR-4) | GI50 (COLO 205) | GI50 (NCI-H226) | GI50 (ACHN) | GI50 (HL-60) | GI50 (HT-29) | GI50 (HOP-92) | GI50 (NCI-H460) | GI50 (M14) | GI50 (LOX IMVI) | GI50 (UACC-257) | GI50 (SF-268) | GI50 (786-0) | GI50 (SW-620)
1 | O=C1Nc2ccc([N+](=O)[O-])cc2/C1=N/NC(=S)Nc1ccc([N+](=O)[O-])cc1 | 31.5 µM (inactive) | 34.2 µM (inactive) | 32.3 µM (inactive) | 17.9 µM (inactive) | 51.9 µM (inactive) | 19 µM | 19.3 µM (inactive) | 36 µM (inactive) | 27.9 µM (inactive) | 24.8 µM (inactive) | 26.7 µM (inactive) | 26.7 µM (inactive) | 18.5 µM (inactive) | 19.7 µM (inactive) | 19.6 µM (inactive) | 22.2 µM (inactive) | 20.8 µM (inactive) | 32.6 µM (inactive) | 16.9 µM (inactive) | 39.2 µM (inactive)
2 | Cc1ccc(-c2cc(-c3c(C)nn(C)c(=O)c3N)n[nH]2)cc1 | > 100 µM (inactive) | > 100 µM (inactive) | > 100 µM (inactive) | > 100 µM (inactive) | > 100 µM (inactive) | > 100 µM | > 100 µM (inactive) | > 100 µM (inactive) | > 100 µM (inactive) | > 100 µM (inactive) | > 100 µM (inactive) | > 100 µM (inactive) | > 100 µM (inactive) | > 100 µM (inactive) | > 100 µM (inactive) | > 100 µM (inactive) | > 100 µM (inactive) | > 100 µM (inactive) | > 100 µM (inactive) | > 100 µM (inactive)
3 | COc1ccc2c(CC(=O)O)cc(=O)oc2c1 | > 100 µM (inactive) | > 100 µM (inactive) | > 100 µM (inactive) | > 100 µM (inactive) | > 100 µM (inactive) | > 100 µM | > 100 µM (inactive) | > 100 µM (inactive) | > 100 µM (inactive) | > 100 µM (inactive) | > 100 µM (inactive) | > 100 µM (inactive) | 86.1 µM (inactive) | > 100 µM (inactive) | > 100 µM (inactive) | > 100 µM (inactive) | > 100 µM (inactive) | > 100 µM (inactive) | > 100 µM (inactive) | > 100 µM (inactive)
4 | O=C1OC(c2ccccc2)=NC1c1ccccc1 (stereo unspecified) | > 100 µM (inactive) | > 100 µM (inactive) | > 100 µM (inactive) | > 100 µM (inactive) | > 100 µM (inactive) | > 100 µM | > 100 µM (inactive) | > 100 µM (inactive) | > 100 µM (inactive) | > 100 µM (inactive) | > 100 µM (inactive) | > 100 µM (inactive) | > 100 µM (inactive) | > 100 µM (inactive) | > 100 µM (inactive) | > 100 µM (inactive) | > 100 µM (inactive) | > 100 µM (inactive) | > 100 µM (inactive) | > 100 µM (inactive)
5 | CCN(CC)c1nc(N(C)C)c2ccc(OC)cc2n1 | 15.2 µM (inactive) | 14 µM (inactive) | 15 µM (inactive) | 8.49 µM (inactive) | 39.9 µM (inactive) | 12.4 µM | 25.8 µM (inactive) | 7.55 µM (inactive) | 14.2 µM (inactive) | 12.5 µM (inactive) | 3.64 µM (inactive) | 4.12 µM (inactive) | 18.5 µM (inactive) | 10.3 µM (inactive) | 8.75 µM (inactive) | 17.1 µM (inactive) | 11.5 µM (inactive) | 32.3 µM (inactive) | 17.5 µM (inactive) | 7.08 µM (inactive)
6 | O=C1NC(N2CCOCC2)=N/C1=C\c1ccccc1 | > 100 µM (inactive) |  | > 100 µM (inactive) | > 100 µM (inactive) | > 100 µM (inactive) | > 100 µM | > 100 µM (inactive) | > 100 µM (inactive) | > 100 µM (inactive) | > 100 µM (inactive) | > 100 µM (inactive) | > 100 µM (inactive) | > 100 µM (inactive) |  | > 100 µM (inactive) | > 100 µM (inactive) | > 100 µM (inactive) | > 100 µM (inactive) | > 100 µM (inactive) | > 100 µM (inactive)
7 | ClCCCCCc1c2nc(c(CCCCCCl)c3ccc([nH]3)c(CCCCCCl)c3nc(c(CCCCCCl)c4ccc1[nH]4)C=C3)C=C2 | > 100 µM (inactive) | > 100 µM (inactive) | > 100 µM (inactive) | > 100 µM (inactive) | > 100 µM (inactive) | > 100 µM | > 100 µM (inactive) | > 100 µM (inactive) | > 100 µM (inactive) | > 100 µM (inactive) | > 100 µM (inactive) | > 100 µM (inactive) | > 100 µM (inactive) | > 100 µM (inactive) | > 100 µM (inactive) | > 100 µM (inactive) | > 100 µM (inactive) | > 100 µM (inactive) | > 100 µM (inactive) | > 100 µM (inactive)
8 | CCN(CCCl)c1cccc(NC(=O)c2ccc(C(=O)Nc3cccc(CN(C)C)c3)cc2)c1 | 0.183 µM (active) | 0.0422 µM (active) | 0.335 µM (active) | 0.05 µM (active) | 0.0618 µM (active) | 0.605 µM | 0.0344 µM (active) | 0.11 µM (active) | 0.219 µM (active) | 0.0354 µM (active) | 0.0292 µM (active) | 0.0597 µM (active) | 0.144 µM (active) | 0.0537 µM (active) | 0.204 µM (active) | 0.0277 µM (active) | 0.113 µM (active) | 0.0379 µM (active) | 0.0239 µM (active) | 0.034 µM (active)
9 | Cc1n[nH]c(=S)n1/N=C/c1ccc(-c2ccc(Cl)cc2)o1 | 93.1 µM (inactive) | > 100 µM (inactive) |  | > 100 µM (inactive) | 37.5 µM (inactive) | > 100 µM | > 100 µM (inactive) |  | > 100 µM (inactive) | 63.7 µM (inactive) | 44.2 µM (inactive) | > 100 µM (inactive) | 69 µM (inactive) | > 100 µM (inactive) | > 100 µM (inactive) | > 100 µM (inactive) | > 100 µM (inactive) | 29.2 µM (inactive) | > 100 µM (inactive) | > 100 µM (inactive)
10 | N=C(c1ccc(-c2cn3cc(C(=N)N4CCCC4)ccc3n2)cc1)N1CCCC1 | > 100 µM (inactive) | > 100 µM (inactive) | > 100 µM (inactive) | > 100 µM (inactive) | > 100 µM (inactive) | > 100 µM | > 100 µM (inactive) | > 100 µM (inactive) | > 100 µM (inactive) | > 100 µM (inactive) | 0.0303 µM (active) | > 100 µM (inactive) | 3.86 µM (inactive) |  | > 100 µM (inactive) | > 100 µM (inactive) | > 100 µM (inactive) | > 100 µM (inactive) | > 100 µM (inactive) | > 100 µM (inactive)
11 | COC(=O)C1Cc2c([nH]c3ccccc23)-c2[nH]c3ccccc3c2CC(NC(C)=O)C(=O)NCC(=O)NCC(=O)N1 (stereo unspecified) | > 100 µM (inactive) | > 100 µM (inactive) | > 100 µM (inactive) | > 100 µM (inactive) | > 100 µM (inactive) | > 100 µM |  | > 100 µM (inactive) | > 100 µM (inactive) | > 100 µM (inactive) | > 100 µM (inactive) | > 100 µM (inactive) | > 100 µM (inactive) | > 100 µM (inactive) | > 100 µM (inactive) | > 100 µM (inactive) | > 100 µM (inactive) | > 100 µM (inactive) | > 100 µM (inactive) | > 100 µM (inactive)
12 | COCC1OC(S(=O)(=O)c2ccccc2)C(O)C(OC)C1OC (stereo unspecified) | > 100 µM (inactive) | > 100 µM (inactive) | > 100 µM (inactive) | > 100 µM (inactive) | > 100 µM (inactive) | > 100 µM | > 100 µM (inactive) | > 100 µM (inactive) | > 100 µM (inactive) | > 100 µM (inactive) | > 100 µM (inactive) | > 100 µM (inactive) |  | > 100 µM (inactive) | > 100 µM (inactive) | > 100 µM (inactive) | > 100 µM (inactive) | > 100 µM (inactive) | > 100 µM (inactive) | > 100 µM (inactive)
13 | COC(=O)/C=C\[C@H]1[C@H](C)N1S(=O)(=O)c1ccc(C)cc1 (stereo partly specified) | > 100 µM (inactive) | > 100 µM (inactive) | > 100 µM (inactive) | > 100 µM (inactive) | > 100 µM (inactive) | 70.3 µM | > 100 µM (inactive) | > 100 µM (inactive) | > 100 µM (inactive) | > 100 µM (inactive) | > 100 µM (inactive) | > 100 µM (inactive) |  | > 100 µM (inactive) | > 100 µM (inactive) | > 100 µM (inactive) | > 100 µM (inactive) | > 100 µM (inactive) | > 100 µM (inactive) | > 100 µM (inactive)
14 | N#CC1=C(N)N(/N=C/c2ccccc2)C(c2ccccc2)C1(C#N)C#N (stereo unspecified) | 18.7 µM (inactive) | 2.98 µM (inactive) | 14.6 µM (inactive) | 16.1 µM (inactive) | 24.1 µM (inactive) | 6.75 µM | 14.9 µM (inactive) | 2.19 µM (inactive) | 18.6 µM (inactive) | 4.3 µM (inactive) | 2.19 µM (inactive) | 4 µM (inactive) | 2.98 µM (inactive) |  | 12.6 µM (inactive) | 4.14 µM (inactive) | 9.38 µM (inactive) | 20.7 µM (inactive) | 4.7 µM (inactive) | 5.18 µM (inactive)
